Reference: patent US4889871A, “Alkoxy-substituted dihydrobenzopyran-2-carboxylate derivatives” (G. D. Searle & Co., priority 1988, dated 1989)
Where two headings read alike, the source gives them in different places.

What was measured:
human neutrophils [1] = assay: Human neutrophil degranulation assay (LTB4-induced, myeloperoxidase release); assay type: cell-based; conditions: Table 1, LTB4 (5×10^-8 M)
Procedure: Neutrophils were purified from venous blood of normal human donors using standard techniques of dextran sedimentation, centrifugation on Ficoll-paque® (Pharmacia) or Histopaque® sterile solution (Sigma) and hypotonic lysis of erythrocytes (Boyum, A., Isolation of Leukocytes From Human Blood: Further Observations. Scand. J. Lab. Clin. Invest., 21 (Suppl. 97): 31, 1968). The purity of isolated neutrophils was >95%.
Neutrophil degranulation was determined by measuring the release of myeloperoxidase activity into the incubation medium. Neutrophils (3×10^6) in 1 ml HBSS solution were preincubated with cytochalasin B (5 μg) at 37° C. for 5 minutes, followed by preincubation with test compounds for 7 minutes. Neutrophils were then incubated for 2 to 20 minutes with either LTB4 (5×10^-8 M) or the chemotactic peptide f-met-leu-phe (5×10^-6 M) to induce degranulation. Following incubation, samples were centrifuged and myeloperoxidase was extracted from the cell pellets by sonication in phosphate buffer containing 0.4% Triton X-100. Triton X-100 was also added to the supernatants to a concentration of 0.4%. The supernatants and the pellet - extracts were then assayed spectrophotometrically for myeloperoxidase activity by determining the rate of decomposition of H2 O2 with o-dianisidine as hydrogen donor as described by Renlund, et al. (Renlund, D. G., MacFarlane, J. L., Christensen, R. D., Lynch, R. E., and Rothstein, G., A Quantitative And Sensitive Method For Measurement Of Myeloperoxidase, Clinical Research 28:75A, 1980). Myeloperoxidase activity released into the supernatant was expressed as the percent of the average total activity (pellet plus supernatant).

human neutrophils [2] = assay: Modified Boyden chamber chemotaxis (LTB4, human neutrophils); assay type: cell-based; conditions: Neutrophil; for inhibition at 1 µM: 10^-6 M
Procedure: Human neutrophils were isolated from citrated peripheral blood using standard techniques of dextran sedimentation, followed by centrifugation on Histopaque® sterile solution (Sigma) or Ficoll-paque® (Pharmacia) and hypotonic lysis of erythrocytes. A final cell suspension of 3.4×10^6 neutrophils/ml of HEPES-buffered Hanks balanced salt solution (HBSS, pH 7.3) was added to the upper well (0.8 ml) of a modified Boyden chamber (blind well). The lower well (0.2 ml), separated by a polycarbonate membrane (Nuleopore Corp.), contained HBSS or 3×10^-8 M LTB4 in the presence of absence of test compound. Following a 90 minute incubation at 37° C. in 5% CO2 -95% air, cells from the lower well were lysed and nuclei counted in a Model S-Plus-IV Coulter Counter. Percent inhibition was calculated from cell counts corrected for random migration by subtracting the mean of the HBSS control.

LTB4 receptor = molecular target: T1, LTB4 receptor (Homo sapiens, UniProt Q15722); assay: LTB4 receptor binding assay ((3H) LTB4, human neutrophils); conditions: Table 1
T1 construct: Neutrophils were purified from venous blood of normal human donors; endogenous in cells; host or cells: purified human blood neutrophils (intact cells)
T1 sequence (Q15722 whole entry): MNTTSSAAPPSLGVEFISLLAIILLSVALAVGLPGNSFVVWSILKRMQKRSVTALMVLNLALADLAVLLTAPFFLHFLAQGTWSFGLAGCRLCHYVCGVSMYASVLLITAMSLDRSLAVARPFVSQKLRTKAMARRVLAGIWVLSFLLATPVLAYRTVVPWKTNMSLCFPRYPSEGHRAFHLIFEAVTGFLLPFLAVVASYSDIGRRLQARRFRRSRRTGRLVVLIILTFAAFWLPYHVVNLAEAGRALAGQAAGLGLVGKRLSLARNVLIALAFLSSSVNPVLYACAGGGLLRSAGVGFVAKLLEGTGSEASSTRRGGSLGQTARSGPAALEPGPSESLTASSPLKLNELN
Procedure: Neutrophils (4-6×10^6) in 1 ml Hanks' balanced salt solution containing 10 mM HEPES buffer (HBSS), pH 7.4 and 30 μM nordihydroguaiaretic acid were incubated with 0.6×10^-9 M (^3 H) LTB4 in the presence or absence of test compounds. The incubation was carried out at 0° C. for 45 minutes and terminated by adding 5 ml of ice-cold HBSS followed by rapid filtration of incubation mixture under vacuum through GF/C glass fiber filters. The filters were further washed with 10 ml HBSS and radioactivity was determined. Specific binding was defined as the difference between total binding and nonspecific binding which was not displaced by 10^-7 M unlabeled LTB4. All data refer to specific binding.

LTD4 receptor = molecular target: T2, LTD4 receptor (Cavia porcellus, UniProt Q2NNR5); assay: LTD4 receptor binding assay using guinea pig lung membrane preparations; conditions: for Receptor Binding LTD4 IC50: Table 1, results are from Table 3, 10^-5 M
T2 construct: from tissue; host or cells: lung membranes of male Hartley guinea pigs
T2 sequence (Q2NNR5 1-340): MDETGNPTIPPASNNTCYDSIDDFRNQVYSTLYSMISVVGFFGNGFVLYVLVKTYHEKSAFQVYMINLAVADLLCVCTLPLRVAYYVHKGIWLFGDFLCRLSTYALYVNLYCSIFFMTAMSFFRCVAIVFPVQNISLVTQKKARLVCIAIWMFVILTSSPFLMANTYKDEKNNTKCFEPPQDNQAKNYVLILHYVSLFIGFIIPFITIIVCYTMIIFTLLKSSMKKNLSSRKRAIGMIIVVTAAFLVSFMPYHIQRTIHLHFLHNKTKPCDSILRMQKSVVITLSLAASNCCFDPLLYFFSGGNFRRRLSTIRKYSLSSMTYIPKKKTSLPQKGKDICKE
Procedure: MEMBRANE PREPARATIONS: For each membrane preparation, 10-11 male Hartley guinea pigs, weighing less than 350 gm, were sacrificed by guillotine. The lungs were rapidly removed and placed in ice-cold 50 mM Trisma 7.0 buffer. After all the lungs were collected, each was probed free of bronchial tissue to at least the level of tertiary branching as observed through a dissecting lamp. The tissue was minced with a razor blade on a damp paper towel and placed into fresh ice-cold Trisma 7.0 buffer. When all the tissues had been processed, they were pooled, drained and weighed. Nine volumes of cold buffer were added and the tissue was polytroned for 6-10 second bursts with a 1 minute cool down period in an ice bath between each burst. The homogenate was filtered through a gauze pad and centrifuged at 1085× g for 15 minutes at 4° C. Supernatants were saved and centrifuged at 40,000× g for 20 minutes at 4° C. This time, supernatants were discarded and the pellets were resuspended in 30-35 ml fresh Trisma 7.0 buffer by 1-10 second bursts with the polytron. The materials were centrifuged again at 40,000× g. Supernatants were again discarded. Each pellet was resuspended again with approximately 7 ml buffer. All this material was pooled into a 100 ml polypropylene container and stirred with a magnetic stirring bar. The tubes were rinsed with small amounts of buffer and the rinse was added to the membrane preparation. The homogenized membranes were aliquoted into 1.5 ml microfuge tubes and frozen at -70° C. Three aliquots were submitted for protein determinations by FPB (fluorescamine protein binding) assay.
Unless otherwise indicated, all binding experiments were performed in a final incubation volume of 250 μl. […] Both materials were received in solutions. […] Both solutions were brought to appropriate assay concentrations by dilution in assay buffer consisting of 50 mM Trisma 7.4 with 5 mM L-cysteine and 20 mM CaCl2. Membranes were also diluted with this assay buffer. […] Diluent was added to all other appropriate control tubes. Incubations were conducted for 30 minutes at 25° C. in a shaking water bath. Termination of the reaction was achieved by pouring the incubate over 2.5 cm Whatman GF/C filters soaked in assay buffer and set over the ports of Millipore filter vacuum manifolds. Filters were rinsed with 4 ml ice cold assay buffer 3 times. The filters were removed, placed in 10 ml Aquasol scintillation cocktail and allowed to cool in the dark for 2 hours prior to counting. All samples were corrected for background and isotope decay before converting DPM determination to mass.
These values were logit-transformed and linear regression was performed on the dose-response data. All dose-response sets used to calculate IC50 values contained data from 3-6 compound concentrations. […] IC50 values were calculated from the regression equation for the line.
male guinea pig lung homogenate which was aliquoted and stored at
-70° C. The particular preparation used to test the compounds of
Protein concentrations in these assays were adjusted
to provide aproximately 0.1 nM receptor in the presence of lnM ^3
HLTD4. Incubation was conducted for 30 min.
at 24° C. and filtration methods were used to separate bound from
tested were intially solubilized in DMSO. Each compound was evaluated at
dose of 10 μM (10^-5 M) in triplicate in 2 separate assays. The

[3] = read-out: Chemotaxis (Boyden) percent inhibition
[4] = read-out: LTD4 Receptor Binding Activity, 10 μM
[5] = read-out: LTD4 Receptor Binding Percent Inhibition, Test #1, 10 μM, triplicate, 30 min, 24° C.
[6] = read-out: LTD4 Receptor Binding Percent Inhibition, Test #2, 10 μM, triplicate, 30 min, 24° C.

IC50 (human neutrophils [1]) [nM]	IC50 (human neutrophils [2]) [nM]	IC50 (LTB4 receptor) [nM]	Structure (SMILES)	inhibition at 1 µM (human neutrophils [2]; [3]) [%]	also measured
180	200	190	CCCc1c(OCCCOc2ccc(C(C)=O)c(OC)c2CC2CC2)ccc2c1OC(C(=O)O)CC2 (stereo not drawn) [Example 3, 7-[3-[4-acetyl-2-(cyclopropylmethyl)-3-methoxyphenoxy]propoxy]-3,4-dihydro-8-propyl-2H-1-benzopyran-2-carboxylic acid]		
2700		5000	CCCc1c(OC2CCC(Oc3ccc(C(C)=O)c(OC)c3CCC)C2)ccc2c1OC(C(=O)O)CC2 (stereo not drawn) [Example 4, 7-[[3-(4-acetyl-3-methoxy-2-propylphenoxy)cyclopentyl]oxy]-3,4-dihydro-8-propyl-2H-1-benzopyran-2-carboxylic acid]		inhibition at 0.01 µM (human neutrophils [2]; 10^-8 M, read-out: Chemotaxis (Boyden) percent inhibition): 62%
400	500	100	C=CCc1c(OCCCOc2ccc3c(c2CCC)OC(C(=O)O)CC3)ccc(C(C)=O)c1OC (stereo not drawn) [Example 5, 7-[3-[4-acetyl-3-methoxy-2-(2-propenyl)phenoxy]propoxy]-3,4-dihydro-8-propyl-2H-1-benzopyran-2-carboxylic acid]		
8000		2600	CCCc1c(OCCCOc2ccc3c(c2)OC(C(=O)O)CC3)ccc(C(C)=O)c1OC (stereo not drawn) [Example 6, 7-[3-(4-acetyl-3-methoxy-2-propylphenoxy)propoxy]-3,4-dihydro-2H-1-benzopyran-2-carboxylic acid]	48	Receptor Binding LTD4 IC50 (LTD4 receptor): Inactive; inhibition at 10 µM (LTD4 receptor; [4]): < 45%; inhibition at 10 µM (LTD4 receptor; [5]): 1.63%; inhibition at 10 µM (LTD4 receptor; [6]): 26%
		1800	CCCc1c(OCCCOc2ccc(C(C)=O)c(OC)c2CCC)ccc2c1OC(C(=O)NC)CC2 (stereo not drawn) [Example 8, 7-[3-(4-acetyl-3-methoxy-2-propylphenoxy)propoxy]-3,4-dihydro-N-methyl-8-propyl-2H-1-benzopyran-2-carboxamide]	12	
550	650	250	CCCc1c(OCCCOc2ccc3c(c2CCC)OC(C)(CCC(=O)O)CC3=O)ccc(C(C)=O)c1OC (stereo not drawn) [Example 16, 7-[3-(4-acetyl-3-methoxy-2-propylphenoxy)propoxy]-3,4-dihydro-2-methyl-4-oxo-8-propyl-2H-1-benzopyran-2-propanoic acid]		Receptor Binding LTD4 IC50 (LTD4 receptor): Inactive; inhibition at 10 µM (LTD4 receptor; [4]): < 45%; inhibition at 10 µM (LTD4 receptor; [5]): 16.5%; inhibition at 10 µM (LTD4 receptor; [6]): 24.1%
2100		800	CCCc1c(OCC#CCOc2ccc3c(c2CCC)OC(C)(CCC(=O)O)CC3=O)ccc(C(C)=O)c1OC (stereo not drawn) [Example 17]	31	
2600		370	CCCc1c(OCCCOc2ccc(C(C)=O)c(OC)c2CCC)ccc2c1CC(C(=O)O)CC2 (stereo not drawn) [Example 18, 7-[3-(4-acetyl-3-methoxy-2-propylphenoxy)propoxy]-1,2,3,4-tetrahydro-8-propyl-2-naphthalenecarboxylic acid]		inhibition at 10 µM (human neutrophils [2]; 10^-5 M, read-out: Chemotaxis (Boyden) percent inhibition): 87%
5000		1200	CCCc1c(OCCCOc2ccc(C(=O)C(C)C)c(OC)c2CCC)ccc2c1OC(C(=O)O)CC2 (stereo not drawn) [Example 19, 3,4-dihydro-7-[3-[3-methoxy-4-(2-methyl-1-oxopropyl)-2-propylphenoxy]propoxy]-8-propyl-2H-1-benzopyran-2-carboxylic acid]	15	
		1000	CCCc1c(OCCCOc2ccc(C(C)=O)c(OCC)c2CCC)ccc2c1OC(C(=O)O)CC2 (stereo not drawn) [Example 21, 7-[3-(4-acetyl-3-ethoxy-2-propylphenoxy)-propoxy]-3,4-dihydro-8-propyl-2H-1-benzopyran-2-carboxylic acid]		
1600	1200	500	CCCc1c(OCCCOc2ccc3c(=O)cc(CCC(=O)O)oc3c2CCC)ccc(C(C)=O)c1OC [Example 22, 7-[3-(4-acetyl-3-methoxy-2-propylphenoxy)propoxy]-4-oxo-8-propyl-4H-1-benzopyran-2-propanoic acid]		
			CCCc1c(OCC(O)COc2ccc3c(=O)cc(C(=O)O)oc3c2CCC)ccc(C(C)=O)c1O (stereo not drawn) [FPL 55712, reference compound]		IC50 (LTD4 receptor): 10400 nM; inhibition at 10 µM (LTD4 receptor; read-out: LTD4 Receptor Binding Activity): > 45%; inhibition at 10 µM (LTD4 receptor; read-out: LTD4 Receptor Binding Percent Inhibition, Test #1): 54.7%; inhibition at 10 µM (LTD4 receptor; read-out: LTD4 Receptor Binding Percent Inhibition, Test #2): 47%
